Test results: patent EP4640674A1, “CRYSTAL FORMS OF ETHOXIMOD, PREPARATION METHOD THEREFOR AND USE THEREOF” (Jiankuan (Suzhou) Biotechnology Co., Ltd, priority 2022, dated 2024)

Assay: Stability of crystal form C on drying (XRPD)
Type: physicochemical
From the text: The sample was subjected to a TGA test. From the above results, it is speculated that the crystal form C is an unstable channel hydrate that is prone to crystal transformation during drying and placement, making the preparation of a pure phase difficult.

CCc1nc(-c2ccc(-c3ccc(CCC(N)(CO)CO)cc3)cc2)co1.Cl [crystal form C, 2-amino-2-{2-(4'-(2-ethyloxazol-4-yl)-[1,1'-biphenyl]-4-yl)ethyl}-1,3-propylene glycol hydrochloride]
crystal form after drying (XRPD) (purged with nitrogen at room temperature for 3 h): partially crystal transformed into the crystal form A | crystal form after drying (XRPD) (vacuum at 50 °C under reduced pressure, dried overnight): partially crystal transformed into a crystal form A
